In US20110092544A1, “FUNGICIDAL PYRIDINES” (E.I. DU PONT DE nemours and company, priority 2008, published 2011):

Tests used:
Assay type in all cases: in vivo
Alternaria solani = assay: Test E: tomato early blight, preventive spray on tomato seedlings, visual disease rating; details: for pest or weed control at 200 ppm: Alternaria solani, 168 h
In short: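 Seedlings sprayed to run-off with compound in acetone/water plus 250 ppm Trem 014 (200 ppm ≈ 500 g/ha), inoculated with spores next day. Held 48 h saturated at 27 °C, then 5 days at 20 °C; visual rating 0–100% disease control relative to controls.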

[1] = test system: Puccinia recondite f. sp. tritici; assay: Test B: wheat leaf rust, preventive spray on wheat seedlings, visual disease rating; details: for pest or weed control at 200 ppm: 192 h
In short: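 Wheat seedlings were sprayed to run-off with compound suspension, 200 ppm (≈500 g/ha) or 40 ppm where marked, containing surfactant in acetone/water. Inoculation with Puccinia recondita spores followed one day later, then 24 h in saturated humidity at 20° C and 7 days at 20° C. Disease control was rated visually, 0–100% versus controls.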

[2] = test system: Erysiphe graminis f. sp. tritici; assay: Test A: wheat powdery mildew, preventive spray on wheat seedlings, visual disease rating; details: for pest or weed control at 200 ppm: Blumeria graminis, 192 h
In short: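 Acetone/water (50/50) suspension with 250 ppm surfactant sprayed to run-off on wheat seedlings (200 ppm ≈ 500 g/ha); inoculated next day with E. graminis spore dust. Incubated 8 days at 20° C, then visually rated 0–100% disease control versus untreated controls; tests at 200 ppm or 40 ppm.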

Botrytis cinerea = assay: Test F: tomato botrytis, preventive spray on tomato seedlings, visual disease rating; details: for pest or weed control at 200 ppm: Botrytis cinerea, 120 h
In short: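 Tomato seedlings sprayed to run-off with compound suspended in acetone/water (50/50) plus 250 ppm Trem 014, at 200 ppm (≈500 g/ha) or 40 ppm where marked. Inoculated next day with B. cinerea spores, 48 h saturated atmosphere at 20 °C, then 3 days at 24 °C. Visual rating, 0–100% disease control relative to controls.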

Rhizoctonia oryzae = assay: Test G: turf brown patch, preventive spray on creeping bent grass seedlings, visual disease rating; details: for pest or weed control at 200 ppm: Waitea circinata, in Agrostis stolonifera, 120 h
Source text: (§1) General protocol for preparing test suspensions for Tests A-H: The test compounds were first dissolved in acetone in an amount equal to 3% of the final volume and then suspended at the desired concentration (in ppm) in acetone and purified water (50/50 mix) containing 250 ppm of the surfactant Trem® 014 (polyhydric alcohol esters). The resulting test suspensions were then used in tests A-H. Spraying a 200 ppm test suspension to the point of run-off on the test plants was the equivalent of a rate of 500 g/ha.
The test suspension was sprayed to the point of run-off on creeping bent grass seedlings. The following day the seedlings were inoculated with a spore suspension of Rhizoctonia oryzae (the causal agent of turf brown patch) and incubated in a saturated atmosphere at 27° C. for 48 h, and then moved to a growth chamber at 27° C. for 3 days, after which time disease ratings were visually made.
(§2) Results for Tests A-H are given in Table A. In the table, a rating of 100 indicates 100% disease control and a rating of 0 indicates no disease control (relative to the controls). A dash (-) indicates no test results. All results are for compounds tested at 200 ppm except where the compound number is followed by “*” which indicates the compound was tested at 40 ppm.

Septoria nodorum = assay: Test D: wheat glume blotch, preventive spray on wheat seedlings, visual disease rating; details: for pest or weed control at 200 ppm: Parastagonospora nodorum, 216 h
In short: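 Compounds in 3% acetone, then 50/50 acetone–water with 250 ppm Trem 014, sprayed to run-off at 200 ppm (500 g/ha; some at 40 ppm) one day before spore inoculation. Held 48 h saturated at 20 °C, then 7 days at 20 °C; visual rating as % disease control vs untreated (0–100).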

Plasmopara viticola = assay: Test H: grape downy mildew, spray after inoculation of grape seedlings, visual disease rating; details: for pest or weed control at 200 ppm: Plasmopara viticola, 192 h
Source text: as §1
Grape seedlings were inoculated with a spore suspension of Plasmopara viticola (the causal agent of grape downy mildew) and incubated in a saturated atmosphere at 20° C. for 24 h. After a short drying period, the test suspension was sprayed to the point of run-off on the grape seedlings, and then moved to a growth chamber at 20° C. for 6 days, after which time the test units were placed back into a saturated atmosphere at 20° C. for 24 h. Upon removal, disease ratings were visually made.
as §2

Septoria tritici = assay: Test C: wheat leaf blotch, preventive spray on wheat seedlings, visual disease rating; details: for pest or weed control at 200 ppm: Zymoseptoria tritici, 504 h
In short: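 Wheat seedlings sprayed to run-off with compound in acetone/water plus 250 ppm surfactant at 200 ppm (≈500 g/ha), or 40 ppm where marked; inoculated with Septoria tritici next day. Held saturated at 20 °C for 48 h, then 19 days at 20 °C; disease control rated visually 0–100 versus controls.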

[3] = 200 ppm, 100 = 100% disease control, 0 = no control
[4] = 40 ppm (compound number followed by *)

Row | SMILES | Test E rating (% disease control) (Alternaria solani; [3]) | Test B rating (% disease control) [1, 3] | Test A rating (% disease control) [2, 3] | Test F rating (% disease control) (Botrytis cinerea; [3]) | Test D rating (% disease control) (Septoria nodorum; [3]) | Test H rating (% disease control) (Plasmopara viticola; [3]) | Test C rating (% disease control) (Septoria tritici; [3]) | further results
1 | COc1cc(OC)cc(-c2c(C3CCCCC3)cnc(C)c2-c2ccc(F)cc2)c1 [Compound 47] | 67% | 97% | 91% | 96% | 0% |  |  | Test G rating (% disease control) (Rhizoctonia oryzae; [3]): 99%
2 | CCOC(=O)c1c[n+]([O-])c(C)c(-c2ccccc2)c1-c1cc(OC)cc(OC)c1 [Compound 51] | 0% | 0% | 76% | 0% | 0% | 0% |  | 
3 | CCOC(=O)c1cnc(C)c(-c2ccccc2)c1-c1cc(OC)cc(OC)c1 [Compound 1] | 0% | 28% | 96% | 99% | 0% | 0% |  | 
4 | COc1cc(OC)cc(-c2c(C(C)(C)O)cnc(C)c2-c2ccc(F)cc2)c1 [Compound 13, 4-(3,5-dimethoxyphenyl)-5-(4-fluorophenyl)-α,α,6-trimethyl-3-pyridinemethanol] |  |  |  |  |  |  |  | pest or weed control at 200 ppm (Alternaria solani; [3]): 100%; pest or weed control at 200 ppm [1, 3]: 99%; pest or weed control at 200 ppm (Plasmopara viticola; [3]): 0%; pest or weed control at 200 ppm (Septoria tritici; [3]): 100%; pest or weed control at 200 ppm [2, 3]: 96%; pest or weed control at 200 ppm (Botrytis cinerea; [3]): 99%; pest or weed control at 200 ppm (Septoria nodorum; [3]): 0%
5 | COc1cc(OC)cc(-c2c(C(C)C)cnc(C)c2-c2c(F)cc(F)cc2F)c1 [Compound 48] |  |  |  |  |  |  |  | Test E rating (% disease control) (Alternaria solani; [4]): 99%; Test B rating (% disease control) [1, 4]: 100%; Test A rating (% disease control) [2, 4]: 98%; Test F rating (% disease control) (Botrytis cinerea; [4]): 98%; Test G rating (% disease control) (Rhizoctonia oryzae; [4]): 100%; Test D rating (% disease control) (Septoria nodorum; [4]): 0%
6 | CCOC(=O)c1cnc(C)c(-c2ccccc2)c1-c1cc(OC)cc(OC)c1F [Compound 26] | 0% | 68% | 94% | 98% | 0% | 0% | 86% | 
7 | CCOC(=O)c1cnc(C)c(-c2ccccc2)c1-c1cc(OC)cc(OC)c1Cl [Compound 25] |  |  |  |  |  |  |  | Test E rating (% disease control) (Alternaria solani; [4]): 0%; Test B rating (% disease control) [1, 4]: 0%; Test H rating (% disease control) (Plasmopara viticola; [4]): 0%; Test C rating (% disease control) (Septoria tritici; [4]): 0%; Test A rating (% disease control) [2, 4]: 0%; Test F rating (% disease control) (Botrytis cinerea; [4]): 84%; Test D rating (% disease control) (Septoria nodorum; [4]): 0%
8 | CCc1ncc(C(C)C)c(-c2cc(OC)cc(OC)c2)c1-c1ccccc1 [Compound 30] | 0% | 80% | 98% | 99% | 0% | 0% | 100% | 
9 | CCc1ncc(C(C)(C)O)c(-c2cc(OC)cc(OC)c2)c1-c1ccccc1 [Compound 28] | 93% | 28% | 96% | 99% | 0% | 0% | 100% | 
10 | COc1cc(OC)cc(-c2c(C3CCCC3)cnc(C)c2-c2ccc(F)cc2)c1 [Compound 50, 5-cyclopentyl-4-(3,5-dimethoxyphenyl)-3-(4-fluorophenyl)-2-methylpyridine] |  |  |  |  |  |  |  | pest or weed control at 200 ppm (Alternaria solani; [3]): 100%; pest or weed control at 200 ppm [1, 3]: 99%; pest or weed control at 200 ppm [2, 3]: 92%; pest or weed control at 200 ppm (Botrytis cinerea; [3]): 97%; pest or weed control at 200 ppm (Rhizoctonia oryzae; [3]): 98%; pest or weed control at 200 ppm (Septoria nodorum; [3]): 60%
11 | CCOC(=O)c1cnc(C)c(-c2ccc(F)cc2)c1-c1cc(OC)cc(OC)c1 [Compound 11, ethyl 4-(3,5-dimethoxyphenyl)-5-(4-fluorophenyl)-6-methyl-3-pyridinecarboxylate] |  |  |  |  |  |  |  | pest or weed control at 200 ppm (Alternaria solani; [3]): 0%; pest or weed control at 200 ppm [1, 3]: 0%; pest or weed control at 200 ppm (Plasmopara viticola; [3]): 0%; pest or weed control at 200 ppm (Septoria tritici; [3]): 30%; pest or weed control at 200 ppm [2, 3]: 98%; pest or weed control at 200 ppm (Botrytis cinerea; [3]): 0%; pest or weed control at 200 ppm (Septoria nodorum; [3]): 0%
12 | COc1cc(OC)cc(-c2c(C(C)=O)cnc(C)c2-c2ccc(F)cc2)c1 [Compound 12, 1-[4-(3,5-dimethoxyphenyl)-5-(4-fluorophenyl)-6-methyl-3-pyridinyl]ethanone] |  |  |  |  |  |  |  | pest or weed control at 200 ppm (Alternaria solani; [3]): 90%; pest or weed control at 200 ppm [1, 3]: 93%; pest or weed control at 200 ppm (Plasmopara viticola; [3]): 0%; pest or weed control at 200 ppm (Septoria tritici; [3]): 92%; pest or weed control at 200 ppm [2, 3]: 95%; pest or weed control at 200 ppm (Botrytis cinerea; [3]): 99%; pest or weed control at 200 ppm (Septoria nodorum; [3]): 0%
13 | COc1cc(OC)cc(-c2c(-c3ccc(F)cc3)c(C)nc(Cl)c2C2CCCC2)c1 [Compound 49, 2-chloro-3-cyclopentyl-4-(3,5-dimethoxyphenyl)-5-(4-fluorophenyl)-6-methylpyridine] |  |  |  |  |  |  |  | pest or weed control at 200 ppm (Alternaria solani; [3]): 16%; pest or weed control at 200 ppm [1, 3]: 0%; pest or weed control at 200 ppm [2, 3]: 0%; pest or weed control at 200 ppm (Botrytis cinerea; [3]): 0%; pest or weed control at 200 ppm (Rhizoctonia oryzae; [3]): 0%; pest or weed control at 200 ppm (Septoria nodorum; [3]): 0%
14 | CCc1ncc(C(C)=O)c(-c2cc(OC)cc(OC)c2)c1-c1ccccc1 [Compound 27] | 92% | 80% | 98% | 99% | 0% | 0% | 100% | 
15 | CCC(C)(O)c1cnc(C)c(-c2ccc(F)cc2)c1-c1cc(OC)cc(OC)c1 (centres unmarked) [Compound 14] | 99% | 98% | 97% | 99% | 0% | 0% | 99% | 
16 | COc1cc(OC)cc(-c2c(C(C)C)cnc(C)c2-c2ccccc2F)c1 [Compound 21] | 97% | 99% | 100% | 98% | 0% | 40% | 100% | 
17 | COc1cc(OC)cc(-c2c(C(C)=O)cnc(C)c2-c2ccccc2)c1 [Compound 2] | 0% | 0% | 95% | 99% | 0% | 0% |  | 
18 | CCOC(=O)c1cnc(C)c(-c2ccccc2)c1-c1cc(OC)ccc1F [Compound 15] | 0% | 0% | 82% | 96% | 0% | 0% | 7% | 
